{"source": "paper PMC3797685", "about": "“Enhanced Production, Purification, Characterization and Mechanism of Action of Salivaricin 9 Lantibiotic Produced by Streptococcus salivarius NU10” (PLoS ONE, 2013)", "key": {"Lyticase": {"system": "Lyticase", "assay": "Enzyme stability (residual inhibitory activity)", "description": "(§2) Specific enzymatic effects of denaturation on salivaricin 9 were tested using two wells of 6mm diameter each separated by a distance of 4 mm in CAB plates. One well was filled with 50µl of pure salivaricin 9 while the other was filled with 50µl of the tested enzyme. The plate was incubated at 50°C for 2 hours and then incubated at 37°C overnight before seeding the indicator strain onto the agar surface using a cotton swab. Then the plate was re-incubated at 37°C for 18 hours and the zones of inhibitions that appeared indicated residual activity of salivaricin 9 while absence of inhibition zones indicated the denaturation of the antimicrobial peptide by the applied enzymes namely proteinase K, peptidase, lyticase and catalase."}, "Proteinase K": {"target": "Proteinase K (Parengyodontium album, UniProt P06873)", "sequence (P06873 106-384)": "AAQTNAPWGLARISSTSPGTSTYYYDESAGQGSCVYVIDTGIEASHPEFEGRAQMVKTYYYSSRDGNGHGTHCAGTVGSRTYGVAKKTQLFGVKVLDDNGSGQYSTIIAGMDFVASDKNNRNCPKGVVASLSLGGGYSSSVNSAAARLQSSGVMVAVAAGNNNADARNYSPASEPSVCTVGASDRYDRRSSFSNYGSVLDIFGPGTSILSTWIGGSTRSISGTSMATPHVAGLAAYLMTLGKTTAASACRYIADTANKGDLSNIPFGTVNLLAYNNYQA", "assay": "Enzyme stability (residual inhibitory activity)", "description": "Heat stability was studied by exposing pure salivaricin 9 to different temperatures for one hour after which the sample was centrifuged and the supernatant tested for inhibitory activity. The stability of the peptide at different pH values was also evaluated and tested for inhibitory activity. Specific enzymatic effects of denaturation on salivaricin 9 were tested using two wells of 6mm diameter each separated by a distance of 4 mm in CAB plates. One well was filled with 50µl of pure salivaricin 9 while the other was filled with 50µl of the tested enzyme. The plate was incubated at 50°C for 2 hours and then incubated at 37°C overnight before seeding the indicator strain onto the agar surface using a cotton swab. Then the plate was re-incubated at 37°C for 18 hours and the zones of inhibitions that appeared indicated residual activity of salivaricin 9 while absence of inhibition zones indicated the denaturation of the antimicrobial peptide by the applied enzymes namely proteinase K, peptidase, lyticase and catalase. The stability of salivaricin 9 to treatment with the chemicals EDTA, SDS, urea, NaCl and β-mercaptoethanol was examined by adding 1% of these chemicals to the bacteriocin followed by incubation for two hours at RT before the samples were centrifuged and the supernatant tested as mentioned above. […]"}, "[1]": {"system": "Streptococcus pyogenes ATCC12344", "assay": "Minimal inhibitory concentration (NCCLS)", "type": "cell-based", "settings": "pure salivaricin 9, NCCLS method", "procedure": "An induced culture of S. salivarius NU10 was centrifuged at 8000 x g to pellet the cells. The cell free supernatant (CFS) was filtered through 0.2 µm sterilized cellulose membrane (Millipore) to ensure that all cell debris was removed. The filtered crude bacteriocin preparation was passed through 100 ml XAD-16 particles (Sigma) packed in a glass column. The column was washed with 400 ml of distilled water followed by 200 ml of 70% methanol before the active fraction was eluted using 200 ml of 95% methanol (adjusted to pH 2) at a flow rate of 15 ml/min. The methanol was removed using a rotary evaporator and the resulting peptide preparation was lyophilized and stored at -20°C. The lyophilized peptide pellets were dissolved in 20 mM sodium phosphate pH 5.8 (binding buffer). Then the sample was injected into a fast protein liquid chromatography (FPLC) system (ÄKTA Purifier™) using HiTrap SP FF 5ml strong cation exchanger column (GE Healthcare) equilibrated with the same buffer at a flow rate of 1 ml/min. Then the column was washed with 10X column volume of the binding buffer before salivaricin 9 was eluted using a linear gradient of 0 to 1M NaCl in 20 mM sodium phosphate buffer at pH 5.8 (Figure 4). […] MIC values of pure salivaricin 9 against a set of bacterial indicator strains were determined by following the National Committee for Clinical Laboratory Standards (NCCLS) (Table 3)."}, "Proteinase": {"system": "Proteinase", "assay": "Enzyme stability (residual inhibitory activity)", "type": "physicochemical", "settings": "Proteinase 1 mg.ml^-1; adjacent wells, 50 µl each; 50°C 2 hours then 37°C overnight; indicator Micrococcus luteus; titre 800 AU/ml", "description": "as §2"}, "Micrococcus luteus [2]": {"system": "Micrococcus luteus", "assay": "Stability to detergents / chemicals (residual inhibitory activity)", "type": "physicochemical", "settings": "two hours at RT, indicator Micrococcus luteus, titre 800 AU/ml", "description": "(§3) Heat stability was studied by exposing pure salivaricin 9 to different temperatures for one hour after which the sample was centrifuged and the supernatant tested for inhibitory activity. The stability of the peptide at different pH values was also evaluated and tested for inhibitory activity. Specific enzymatic effects of denaturation on salivaricin 9 were tested using two wells of 6mm diameter each separated by a distance of 4 mm in CAB plates. One well was filled with 50µl of pure salivaricin 9 while the other was filled with 50µl of the tested enzyme. The plate was incubated at 50°C for 2 hours and then incubated at 37°C overnight before seeding the indicator strain onto the agar surface using a cotton swab. Then the plate was re-incubated at 37°C for 18 hours and the zones of inhibitions that appeared indicated residual activity of salivaricin 9 while absence of inhibition zones indicated the denaturation of the antimicrobial peptide by the applied enzymes namely proteinase K, peptidase, lyticase and catalase. The stability of salivaricin 9 to treatment with the chemicals EDTA, SDS, urea, NaCl and β-mercaptoethanol was examined by adding 1% of these chemicals to the bacteriocin followed by incubation for two hours at RT before the samples were centrifuged and the supernatant tested as mentioned above. If the chemical was a solvent such as β-mercaptoethanol, then the solvent was evaporated before testing for antimicrobial activity (Table 4)."}, "[3]": {"system": "Lactococcus lactis strain ATCC11454", "assay": "Induction assay, nisin-producing strain ATCC11454", "type": "cell-based", "settings": "0.05 ml test sample, 18 h, well diffusion assay"}, "Catalase": {"system": "Catalase", "assay": "Enzyme stability (residual inhibitory activity)", "description": "as §2"}, "S. salivarius strain K12": {"system": "S. salivarius strain K12", "assay": "Salivaricin induction assay, strain K12", "type": "cell-based, Streptococcus salivarius", "settings": "0.05 ml test sample (titre 4 AU/ml) added to washed cells in M17YESUCa, 18 h anaerobic; well diffusion assay, induced vs control tube", "from_the_text": "The bacteriocin-inducing activities present in crude extracts of S. salivarius strains NU10, YU10, K12 and in FPLC-purified salivaricin 9 peptide fractions having anti-Micrococcus luteus activity was investigated in this study. The crude extracts of producer cells designated as BLIS-NU10, BLIS-YU10 and BLIS-K12 were isolated by acidic methanol extraction of the producer cells as described previously. These crude BLIS extracts had the potential to contain at least two lantibiotics on the basis of PCR assessment for their content of lantibiotic structural genes. Strains NU10 and YU10 had the structural genes for salivaricin 9 and salivaricin A and strain K12 had salivaricin A and salivaricin B structural genes. […] Colonies from an 18 h culture of each S. salivarius strain NU10, YU10 and K12 grown anaerobically on BACa agar was used to inoculate 10 ml of M17YESUCa broth and incubated again under the same conditions. The cells were then collected by centrifugation at 18000 x g for 5 min and washed three times in saline buffer to reduce the levels of cell surface-associated lantibiotic before suspending in 10 ml of the same buffer. […] Induction of salivaricin 9 or salivaricin A production was recorded as inhibitory zones surrounding samples from the induced tubes but not the control tubes. […]"}, "[4]": {"system": "Haemophilus parainfluenza TONEJ11", "assay": "Minimal inhibitory concentration (NCCLS)", "type": "cell-based", "set-up": "key: ++++: inhibition zone >12 mm; +++: inhibition zone = 10 mm; ++: inhibition zone < 5 mm; -: No inhibition", "settings": "pure salivaricin 9, NCCLS method", "procedure": "(§1) An induced culture of S. salivarius NU10 was centrifuged at 8000 x g to pellet the cells. The cell free supernatant (CFS) was filtered through 0.2 µm sterilized cellulose membrane (Millipore) to ensure that all cell debris was removed. The filtered crude bacteriocin preparation was passed through 100 ml XAD-16 particles (Sigma) packed in a glass column. The column was washed with 400 ml of distilled water followed by 200 ml of 70% methanol before the active fraction was eluted using 200 ml of 95% methanol (adjusted to pH 2) at a flow rate of 15 ml/min. The methanol was removed using a rotary evaporator and the resulting peptide preparation was lyophilized and stored at -20°C. The lyophilized peptide pellets were dissolved in 20 mM sodium phosphate pH 5.8 (binding buffer). Then the sample was injected into a fast protein liquid chromatography (FPLC) system (ÄKTA Purifier™) using HiTrap SP FF 5ml strong cation exchanger column (GE Healthcare) equilibrated with the same buffer at a flow rate of 1 ml/min. Then the column was washed with 10X column volume of the binding buffer before salivaricin 9 was eluted using a linear gradient of 0 to 1M NaCl in 20 mM sodium phosphate buffer at pH 5.8 (Figure 4). All fractions were tested for inhibitory activity using Micrococcus luteus as the indicator. MIC values of pure salivaricin 9 against a set of bacterial indicator strains were determined by following the National Committee for Clinical Laboratory Standards (NCCLS) (Table 3)."}, "[5]": {"system": "Actinomyces naeslundii TG2", "assay": "Minimal inhibitory concentration (NCCLS)", "type": "cell-based", "set-up": "key: ++++: inhibition zone >12 mm; +++: inhibition zone = 10 mm; ++: inhibition zone < 5 mm; -: No inhibition", "settings": "pure salivaricin 9, NCCLS method", "procedure": "as §1"}, "[6]": {"system": "Streptococcus mutans GEJ11", "assay": "Minimal inhibitory concentration (NCCLS)", "type": "cell-based", "set-up": "key: ++++: inhibition zone >12 mm; +++: inhibition zone = 10 mm; ++: inhibition zone < 5 mm; -: No inhibition", "settings": "pure salivaricin 9, NCCLS method", "procedure": "as §1"}, "Micrococcus luteus [7]": {"system": "Micrococcus luteus", "assay": "pH stability (residual inhibitory activity)", "type": "physicochemical", "settings": "for Inhibition zone after pH exposure: indicator Micrococcus luteus, titre 800 AU/ml", "description": "as §3"}, "Micrococcus luteus [8]": {"system": "Micrococcus luteus", "assay": "Mode of action, addition to growing culture (OD600)", "type": "cell-based", "settings": "added to different growth phases of Micrococcus luteus culture", "procedure": "When added to different growth phases of Micrococcus luteus culture, salivaricin 9 induced cell lysis.\nFigure 7 Bactericidal mode of action of salivaricin 9. Salivaricin 9 was added to different phases of bacterial growth. […] The sensitive bacteria Micrococcus luteus lost the ability to grow again after salivaricin 9 was added."}}, "note": "Starred links: 1 amine or outer side, 2 acyl side, 3 side chain; linkers in the order of their positions; H or OH if unused. Positions of bridges follow the written chain, without caps; N, C: chain ends. Non-standard residues stand in square brackets, D forms with d. Residues, ends and D or L forms follow the SMILES beside them. dAbu(3S-yl) = C[C@@H]([C@@H](N[*:1])C(=O)[*:2])[*:3]; Dhb = C/C=C(\\N)C(=O)O", "data": [{"smiles": "C/C=C1\\NC(=O)[C@H](Cc2c[nH]c3ccccc23)NC(=O)[C@@H]2NC(=O)[C@H](C)NC(=O)[C@H](CC(C)C)NC(=O)[C@H](CC(N)=O)NC(=O)[C@@H]3CS[C@@H](C)[C@@H](NC(=O)[C@H](CC(C)C)NC(=O)[C@@H](NC(=O)[C@@H](NC(=O)CNC(=O)[C@H](CC(N)=O)NC(=O)CN)C(C)C)C(C)C)C(=O)N[C@@H](CC(C)C)C(=O)N[C@@H](C(=O)N[C@@H](Cc4c[nH]cn4)C(=O)N[C@@H](CCC(=O)O)C(=O)N3)[C@H](C)SC[C@H](NC(=O)[C@H](CCCCN)NC(=O)[C@H](CC(C)C)NC(=O)[C@H](CCCCN)NC(=O)[C@H](CCCCN)NC1=O)C(=O)N[C@H](C(=O)O)CS[C@H]2C", "note": "[Salivaricin 9] (H-GNGVVL[dAbu(3S-yl)]L[dAbu(3S-yl)]HECNLA[dAbu(3S-yl)]W[Dhb]KKLKCC-OH; thioether 7-12, 9-23, 16-24; N-terminus and C-terminus assumed)", "values": [{"measurement": "Inhibition zone after enzyme treatment", "setting": "Lyticase; Lyticase 1 mg.ml^-1, adjacent wells, 50 µl each, 50°C 2 hours then 37°C overnight, indicator Micrococcus luteus, titre 800 AU/ml", "result": "++++ (inhibition zone >20 mm)"}, {"measurement": "Antimicrobial activity after enzyme treatment (in words)", "setting": "Lyticase; treated with lyticase", "result": "remained active"}, {"measurement": "Inhibition zone after enzyme treatment", "setting": "Proteinase K; Proteinase K 1 mg.ml^-1, adjacent wells, 50 µl each, 50°C 2 hours then 37°C overnight, indicator Micrococcus luteus, titre 800 AU/ml", "result": "-"}, {"measurement": "Antimicrobial activity after enzyme treatment (in words)", "setting": "Proteinase K; treated with proteinase K", "result": "lost all antimicrobial activity"}, {"measurement": "MIC of salivaricin 9", "setting": "[1]", "result": 32, "unit": "µg/mL"}, {"measurement": "Inhibition zone after enzyme treatment", "setting": "Proteinase", "result": "-"}, {"measurement": "Inhibition zone after detergent / chemical treatment", "setting": "Micrococcus luteus [2]; EDTA 1% (w/v)", "result": "++++ (inhibition zone >20 mm)"}, {"measurement": "Inhibition zone after detergent / chemical treatment", "setting": "Micrococcus luteus [2]; NaCl 1% (w/v)", "result": "++++ (inhibition zone >20 mm)"}, {"measurement": "Inhibition zone after detergent / chemical treatment", "setting": "Micrococcus luteus [2]; SDS 1% (w/v)", "result": "++++ (inhibition zone >20 mm)"}, {"measurement": "Inhibition zone after detergent / chemical treatment", "setting": "Micrococcus luteus [2]; Tritone X100 1% (w/v)", "result": "++ (inhibition zone < 20 mm)"}, {"measurement": "Inhibition zone after detergent / chemical treatment", "setting": "Micrococcus luteus [2]; Tween 20 1% (w/v)", "result": "++++ (inhibition zone >20 mm)"}, {"measurement": "Inhibition zone after detergent / chemical treatment", "setting": "Micrococcus luteus [2]; Tween 80 1% (w/v)", "result": "++++ (inhibition zone >20 mm)"}, {"measurement": "Inhibition zone after detergent / chemical treatment", "setting": "Micrococcus luteus [2]; Urea 1% (w/v)", "result": "++++ (inhibition zone >20 mm)"}, {"measurement": "Preparation induces inhibitor production in ATCC11454", "setting": "[3]", "result": "No"}, {"measurement": "Inhibition zone after enzyme treatment", "setting": "Peptidase; Peptidase 1 mg.ml^-1, adjacent wells, 50 µl each, 50°C 2 hours then 37°C overnight, indicator Micrococcus luteus, titre 800 AU/ml", "result": "-"}, {"measurement": "Antimicrobial activity after enzyme treatment (in words)", "setting": "Peptidase; treated with peptidase", "result": "lost all antimicrobial activity"}, {"measurement": "Inhibition zone after enzyme treatment", "setting": "Catalase; Catalase 1 mg.ml^-1, adjacent wells, 50 µl each, 50°C 2 hours then 37°C overnight, indicator Micrococcus luteus, titre 800 AU/ml", "result": "++++ (inhibition zone >20 mm)"}, {"measurement": "Antimicrobial activity after enzyme treatment (in words)", "setting": "Catalase; treated with catalase", "result": "remained active"}, {"measurement": "Preparation induces inhibitor production in K12", "setting": "S. salivarius strain K12", "result": "No"}, {"measurement": "MIC of salivaricin 9", "setting": "[4]", "result": "-"}, {"measurement": "MIC of salivaricin 9", "setting": "[5]", "result": "-"}, {"measurement": "MIC of salivaricin 9", "setting": "[6]", "result": "-"}, {"measurement": "Inhibition zone after pH exposure", "setting": "Micrococcus luteus [7]; pH 2- 7", "result": "++++ (inhibition zone >20 mm)"}, {"measurement": "Inhibition zone after pH exposure", "setting": "Micrococcus luteus [7]; pH 8-10", "result": "+++ (inhibition zone =20 mm)"}, {"measurement": "Inhibition zone after pH exposure", "setting": "Micrococcus luteus [7]; pH 11-12", "result": "-"}, {"measurement": "Antimicrobial activity after pH exposure (in words)", "setting": "Micrococcus luteus [7]; pH range of 2 to 10", "result": "retained"}, {"measurement": "Mode of action (OD600 after addition to culture)", "setting": "Micrococcus luteus [8]", "result": "bactericidal and bacteriolytic"}]}]}
